Read-outs that look alike come from different tables or passages of the source.
Tests used:
[1] = Caco-2 permeability of ADC payload; format: in vitro ADME; details: human; for Papp B→A at 2 h, 10 NM: basolateral to apical, read-out: Permeability Mean Caco-2 B-A Perm (10e−G cm/s)
SF3b complex = target: T1, SF3b complex (Homo sapiens, UniProt O75533+Q7RTV0); assay: SF3B1 binding / scintillation proximity assay (SPA)
T1 construct: The beads were suspended and added to the prepared nuclear extracts; endogenous in cells; host or cells: nuclear extracts
Experimental: A scintillation proximity assay was performed to measure the binding affinity of compounds (“payloads”) to the SF3b complex. Batch immobilization of anti-SF3B1 antibody (MBL) to anti-mouse PVT SPA scintillation beads (PerkinElmer) was prepared as follows: for every 2.5 mg of nuclear extracts, 5 μg of anti-SF3B1 antibody and 1.5 mg of beads were mixed in 150 μL PBS. The antibody-bead mixture was incubated for 30 min at RT and centrifuged at 18,000 g for 5 min. 150 μL PBS was used to resuspend every 1.5 mg antibody-bead mixture. The beads were suspended and added to the prepared nuclear extracts. The slurry was incubated for 2 hours at 4° C. with gentle mixing. The beads were then collected by centrifuging at 18,000 g for 5 min, and washed twice with PBS+0.1% Triton X-100. After a final centrifugation step, every 1.5 mg of beads was suspended with 150 μL of PBS. […] The mixture was incubated for 30 min, and luminescence signals were read using a MicroBeta2 Plate Counter (PerkinElmer). Prism 7 (Graphpad) was used for non-linear regression curve fitting of the data.

PC3 cells = assay: Cell viability CellTiter-Glo, PC3 (EPHA2-expressing); format: cell-based; details: for GI50: Homo sapiens, PC-3, free payload of the ADC
Experimental: (§1) HCC1954 (American Type Culture Collection (ATCC)) breast ductal carcinoma cells were plated at 2000 cells/well in flat bottom 96-well tissue culture plates (Corning) in a total volume of 90 μL tissue culture medium supplemented with 10% fetal bovine serum (ThermoFisher Scientific). Cells were treated with a 3-fold serial dilution of compound from 200 nM to 0.03 nM. Each concentration was tested in triplicate. At the time of treatment, a plate of untreated cells was evaluated using CellTiter-Glo®2.0 Luminescent Cell Viability Assay according to the manufacturers recommendations (Promega; #G9241). CellTiter-Glo® 2.0 reagent was added to the medium, incubated, and assayed on an EnVision Multilabel Reader (PerkinElmer). Values represent time zero (T0). […] Percentage growth inhibition was calculated as: [(T144−T0)/(C−T0)]×100 for concentrations for which T144>/=T0 or [(T144−T0)/T0]×100 for concentrations for which T144<T0. The dose response curve plots were generated using Prism 7 (Graphpad) and fit using nonlinear regression analysis and the log(inhibitor) versus response-variable slope (four parameters).
(§2) Anti-CD138 ADCs were tested in the CD138-expressing MOLP8 multiple myeloma cell line. Similarly, anti-EPHA2 ADCs were tested in the EPHA2-expressing PC3 prostate cancer cell line.

[2] = Chemical stability of ADC payload, pH 5.5 buffer; format: physicochemical; details: for half-life at 20 μM: McIlvaine (citrate-phosphate) buffer, unconjugated payload, Citrate-Phosphate buffer pH 5.5, 37° C., read-out: Stability Mean Stability t1/2 pH5.5 (converted); for pH 5.5 Stability (t1/2, 37 C.): pH 5.5, 37 C., corresponding payload
Source text: (Eppendorf ThermoMixer). […] Time 0 was set to 100.

THP1.1 = assay: Payload cell potency and lethality CTGlo 72 h, THP1.1; format: cell-based
HCC1954 cells = assay: Cell viability CellTiter-Glo, HCC1954; details: for GI50: Homo sapiens, HCC1954, read-out: Payload GI50 (nM)
MOLP8 cells = assay: Cell viability CellTiter-Glo, MOLP8 (CD138-expressing); format: cell-based; details: for GI50: Homo sapiens, MOLP-8, unconjugated payload of the ADC in the row, read-out: Payload GI50
Experimental: as §1, §2

N87 cells = assay: Cell viability CellTiter-Glo, N87; format: cell-based, human; details: unconjugated payload of the ADC; for GI50: Homo sapiens
Experimental: as §1
(§3) HCC1954 (ATCC), 2000 cells/well), N87 (ATCC, 4000 cells/well), SKBR3 (ATCC, 3000 cells/well), and MCF7 (ATCC, 1500 cells/well) cell lines were used.

MCF7 cells = assay: Cell viability CellTiter-Glo, MCF7 (HER2-negative); format: cell-based; details: Homo sapiens, unconjugated payload of the ADC
Experimental: as §1, §3

Caco-2 cells = assay: Caco-2 permeability of ADC payload; format: in vitro ADME
NCIH1650.1 = assay: Payload cellular potency CTGlo-ATS 72 h, NCIH1650.1; format: cell-based; details: cell line #1, 72 h, corresponding free payload
NCIH1568.1 = assay: Payload cellular potency CTGlo-ATS 72 h, NCIH1568.1; format: cell-based; details: cell line #2, 72 h, corresponding free payload
[3] = Caco-2, A-B, corresponding payload (Table 26), read-out: Permeability Caco-2 A-B (10e−6 cm/s)
[4] = Caco-2, unconjugated payload, apical to basolateral, 2 hours, read-out: Permeability Mean Caco-2 A-B Perm (10e−6 cm/s)
[5] = Caco-2, unconjugated payload, 2 hours
[6] = unconjugated payload, [3H]-pladienolide B probe displacement, read-out: SPA-AT S GMean IC50 (nM) SF381 (WT) HELA.2
[7] = unconjugated payload of the ADC
[8] = unconjugated payload of the ADC, HCC1954 cells

Compound | Papp A→B at 2 h, 10 NM [1, 3] [×10⁻⁶ cm/s] | Papp A→B at 2 h, 10 NM [1, 4] [×10⁻⁶ cm/s] | Papp B→A at 2 h, 10 NM [1, 5] [×10⁻⁶ cm/s] | IC50 (SF3b complex; [6]) [nM] | GI50 (PC3 cells) [nM] | Payload Rmin (%) (PC3 cells; free payload of the ADC) | half-life at 20 μM [2] [h] | pH 5.5 Stability (t1/2, 37 C.) [2] | CTGlo-AT S Mean Min-Response % 72 h THP1.1 (THP1.1; unconjugated payload) [%] | GI50 (HCC1954 cells) [nM] | GI50 (MOLP8 cells) [nM] | GI50 (N87 cells) [nM] | Payload Rmin (%) (N87 cells) | GI50 (MCF7 cells) [nM] | also measured
CC[C@H](O)[C@@H](C)[C@H]1O[C@@H]1C[C@@](C)(O)/C=C/C=C(\C)[C@H]1OC(=O)C[C@H](O)CC[C@@](C)(OC)[C@@H](OC(=O)N2CCN(C)CC2)/C=C/[C@@H]1C [D2, (2S,3S,6S,7R,10R,E)-10-hydroxy-2-((R,2E,4E)-6-hydroxy-7-((2R,3R)-3-((2R,3S)-3-hydroxypentan-2-yl)oxiran-2-yl)-6-methylhepta-2,4-dien-2-yl)-7-methoxy-3,7-dimethyl-12-oxooxacyclododec-4-en-6-yl 4-methylpiperazine-1-carboxylate] | 0.6 | 0.624 | 14.2 | 15.5 | 2.39 | −68.803 | 96 | 4 | −100.218 | 0.6 | 0.316 | 0.749 | −72.706 | 2.85 | Payload Rmin (%) (MOLP8 cells; [7]): −100.198%
CC(=O)N1CCC(n2nnc3c(F)cc(/C=C(\C)[C@H]4OC(=O)C[C@H](O)CC[C@H](C)[C@@H](OC(=O)N5CCN(C)CC5)/C=C/[C@@H]4C)cc32)CC1 [D15] | 3.4 | 3.43 | 26.9 |  | 3.88 | −79.835 | > 168 | 7 | −99.595 | 0.358 | 0.776 | 0.41 | −68.045 | 0.961 | Payload LD50 (HCC1954 cells; [8]): 2.037 nM; Payload Rmin (%) (HCC1954 cells; [8]): −84.412%; Payload LD50 (N87 cells): >200 nM
CC[C@H](O)[C@@H](C)[C@H]1O[C@@H]1C[C@@](C)(O)/C=C/C=C(\C)[C@H]1OC(=O)C[C@H](O)CC[C@@](C)(OC)[C@@H](OC(=O)N2CCN(CCCC(=O)O)CC2)/C=C/[C@@H]1C [D25] | 0.14 | 0.137 | 0.349 |  | > 400 | 77.524 | 120 | 3.4 | −77.246 | 168 | 150 | > 200 | 40.364 | > 200 | payload permeability (in words) (Caco-2 cells): poorly permeable; Payload LD50 (PC3 cells; free payload of the ADC): >400 nM; GI50 (THP1.1; unconjugated payload, payload cell potency and lethality): 348.114 nM; Payload LD50 (MOLP8 cells; [7]): >400 nM
CC[C@H](O)[C@@H](C)C1OC1C[C@@](C)(O)/C=C/C=C(\C)[C@H]1OC(=O)C[C@H](O)CC[C@@](C)(OC)[C@@H](OC(=O)N2CCNCC2)/C=C/[C@@H]1C (stereo in doubt) [D1, (2S,3S,6S,7R,10R,E)-10-hydroxy-2-((R,2E,4E)-6-hydroxy-7-((2S,3S)-3-((2R,3S)-3-hydroxypentan-2-yl)oxiran-2-yl)-6-methylhepta-2,4-dien-2-yl)-7-methoxy-3,7-dimethyl-12-oxooxacyclododec-4-en-6-yl piperazine-1-carboxylate] |  | 0.14 | 2.05 | 6.08 | 13.3 | −71.987 | 94.8 |  | −100.615 | 1.85 |  | 7.04 | −40.041 | 17 | Perm. Mean Caco 2 A-B Perm (10e−6 cm/s) (Caco-2 cells; A-B, corresponding free payload): 0.14 10e−6 cm/s; Perm. Mean Caco 2 B-A Perm (10e−6 cm/s) (Caco-2 cells; B-A, corresponding free payload): 2.05 10e−6 cm/s; IC50 (SF3b complex; target binding, corresponding free payload, read-out: SPA-ATS GMean IC50 (nM) SF3B1 (WT) HELA.2): 6.08 nM; GI50 (THP1.1; read-out: CTGlo-ATS GMean GI50 (nM) 72 h THP1.1, cell line #3, 72 h, corresponding free payload): 11.1 nM; CTGlo-ATS GMean LD50 (nM) 72 h NCIH1650.1 (NCIH1650.1): >10000.00 nM; GI50 (NCIH1650.1; read-out: CTGlo-ATS GMean GI50 (nM) 72 h NCIH1650.1): 12.1 nM; CTGlo-ATS GMean LD50 (nM) 72 h NCIH1568.1 (NCIH1568.1): 65.737 nM; GI50 (NCIH1568.1; read-out: CTGlo-ATS GMean GI50 (nM) 72 h NCIH1568.1): 7.36 nM
